From the NIST ThermoML archive (doi:10.1021/je500050p)
Numbers after ± are expanded uncertainties.

Experiment: activity coefficient (dimensionless); of the first substance listed, at infinite dilution; xn = mol fraction of the nth substance listed
Settings: 101 kPa, Liquid, Chromatography, x1 = 0

| Structure (SMILES) | activity coefficient (323.15 K) | activity coefficient (353.15 K) | activity coefficient (373.15 K) | activity coefficient (333.15 K) | activity coefficient (343.15 K) |
| --- | --- | --- | --- | --- | --- |
| C1CCCCC1 [cyclohexane] + CCCCCCCCCCCCCC[N+](CCCCCC)(CCCCCC)CCCCCC.C[C@H](O)C(=O)[O-] | 0.77 ± 0.05 | 0.73 ± 0.05 | 0.71 ± 0.05 | – | – |
| CCCCCCCCCC [decane] + CC1(C)[C@@H]2CC[C@@]1(CS(=O)(=O)[O-])C(=O)C2.CCCCCCCCCCCCCC[N+](CCCCCC)(CCCCCC)CCCCCC | 1.52 ± 0.1 | – | – | 2.41 ± 0.16 | 3.63 ± 0.25 |
| CCCCCCCCCC [decane] + CCCCCCCCCCCCCC[N+](CCCCCC)(CCCCCC)CCCCCC.C[C@H](O)C(=O)[O-] | 1.67 ± 0.11 | 1.63 ± 0.11 | 1.59 ± 0.11 | – | – |
| ClCCl [dichloromethane] + CC1(C)[C@@H]2CC[C@@]1(CS(=O)(=O)[O-])C(=O)C2.CCCCCCCCCCCCCC[N+](CCCCCC)(CCCCCC)CCCCCC | 0.09 ± 0.03 | – | – | 0.15 ± 0.03 | 0.22 ± 0.03 |
| ClCCl [dichloromethane] + CCCCCCCCCCCCCC[N+](CCCCCC)(CCCCCC)CCCCCC.C[C@H](O)C(=O)[O-] | 0.06 | 0.08 ± 0.03 | 0.1 | – | – |
| CCOCC [diethyl ether] + CC1(C)[C@@H]2CC[C@@]1(CS(=O)(=O)[O-])C(=O)C2.CCCCCCCCCCCCCC[N+](CCCCCC)(CCCCCC)CCCCCC | 0.73 ± 0.05 | – | – | 0.96 ± 0.06 | 1.14 ± 0.07 |
| CCOCC [diethyl ether] + CCCCCCCCCCCCCC[N+](CCCCCC)(CCCCCC)CCCCCC.C[C@H](O)C(=O)[O-] | 0.84 ± 0.05 | 0.79 ± 0.05 | 0.77 ± 0.05 | – | – |
| CC(C)OC(C)C [diisopropyl ether] + CC1(C)[C@@H]2CC[C@@]1(CS(=O)(=O)[O-])C(=O)C2.CCCCCCCCCCCCCC[N+](CCCCCC)(CCCCCC)CCCCCC | 1 | – | – | 1.39 ± 0.09 | 1.77 ± 0.12 |
| CC(C)OC(C)C [diisopropyl ether] + CCCCCCCCCCCCCC[N+](CCCCCC)(CCCCCC)CCCCCC.C[C@H](O)C(=O)[O-] | 1.13 ± 0.07 | 1.08 ± 0.07 | 1.06 ± 0.07 | – | – |
| CCCCCCCCCCCC [dodecane] + CC1(C)[C@@H]2CC[C@@]1(CS(=O)(=O)[O-])C(=O)C2.CCCCCCCCCCCCCC[N+](CCCCCC)(CCCCCC)CCCCCC | 1.72 ± 0.12 | – | – | 3.15 ± 0.22 | 5.14 ± 0.35 |
| CCO [ethanol] + CC1(C)[C@@H]2CC[C@@]1(CS(=O)(=O)[O-])C(=O)C2.CCCCCCCCCCCCCC[N+](CCCCCC)(CCCCCC)CCCCCC | 0.1 | – | – | 0.17 ± 0.03 | 0.26 ± 0.03 |
| CCO [ethanol] + CCCCCCCCCCCCCC[N+](CCCCCC)(CCCCCC)CCCCCC.C[C@H](O)C(=O)[O-] | 0.03 | 0.03 | 0.04 | – | – |
| CCc1ccccc1 [ethylbenzene] + CC1(C)[C@@H]2CC[C@@]1(CS(=O)(=O)[O-])C(=O)C2.CCCCCCCCCCCCCC[N+](CCCCCC)(CCCCCC)CCCCCC | 0.49 ± 0.04 | – | – | 0.76 ± 0.05 | 1.11 ± 0.07 |
| CCc1ccccc1 [ethylbenzene] + CCCCCCCCCCCCCC[N+](CCCCCC)(CCCCCC)CCCCCC.C[C@H](O)C(=O)[O-] | 0.56 ± 0.04 | 0.56 ± 0.04 | 0.57 ± 0.04 | – | – |
| CCCCCCC [heptane] + CC1(C)[C@@H]2CC[C@@]1(CS(=O)(=O)[O-])C(=O)C2.CCCCCCCCCCCCCC[N+](CCCCCC)(CCCCCC)CCCCCC | 1.14 ± 0.07 | – | – | 1.57 ± 0.1 | 2.14 ± 0.15 |
| CCCCCCC [heptane] + CCCCCCCCCCCCCC[N+](CCCCCC)(CCCCCC)CCCCCC.C[C@H](O)C(=O)[O-] | 1.22 ± 0.08 | 1.17 ± 0.07 | 1.16 ± 0.07 | – | – |
| C=CCCCC [hex-1-ene] + CC1(C)[C@@H]2CC[C@@]1(CS(=O)(=O)[O-])C(=O)C2.CCCCCCCCCCCCCC[N+](CCCCCC)(CCCCCC)CCCCCC | 0.85 ± 0.05 | – | – | 1.13 ± 0.07 | 1.75 ± 0.12 |
| C=CCCCC [hex-1-ene] + CCCCCCCCCCCCCC[N+](CCCCCC)(CCCCCC)CCCCCC.C[C@H](O)C(=O)[O-] | 0.93 ± 0.06 | 0.95 ± 0.06 | 0.97 ± 0.06 | – | – |
| CCCCCC [hexane] + CC1(C)[C@@H]2CC[C@@]1(CS(=O)(=O)[O-])C(=O)C2.CCCCCCCCCCCCCC[N+](CCCCCC)(CCCCCC)CCCCCC | 1.05 ± 0.07 | – | – | 1.54 ± 0.1 | 1.81 ± 0.12 |
| CCCCCC [hexane] + CCCCCCCCCCCCCC[N+](CCCCCC)(CCCCCC)CCCCCC.C[C@H](O)C(=O)[O-] | 1.11 ± 0.07 | 1.06 ± 0.07 | 1.06 ± 0.07 | – | – |
| CO [methanol] + CC1(C)[C@@H]2CC[C@@]1(CS(=O)(=O)[O-])C(=O)C2.CCCCCCCCCCCCCC[N+](CCCCCC)(CCCCCC)CCCCCC | 0.08 ± 0.03 | – | – | 0.13 ± 0.03 | 0.2 |
